Test results reported in US7084141B2, “Inhibitors of macrophase migration inhibitory factor and methods for identifying the same” (Avanir Pharmaceuticals, priority 2001, dated 2006).

Molecular target: T1, MIF (Homo sapiens, UniProt P14174)
T1 sequence (P14174 2-115 limits assumed): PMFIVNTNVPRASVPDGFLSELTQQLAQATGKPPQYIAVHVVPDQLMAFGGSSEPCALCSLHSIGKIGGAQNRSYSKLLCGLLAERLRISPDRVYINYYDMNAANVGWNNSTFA
Experiment: Immunoprecipitation of MIF from conditioned media of LPS treated THP-1 cells with monoclonal or polyclonal antibody
Assay type: cell-based
Conditions: 10 μM compound; LPS 10 μg/ml; not observed with polyclonal antibody
Description: Cell culture experiments were designed to characterize the activity of candidate compounds, MIF expression, trafficking, and export. Cell and conditioned medium fractions are prepared for immunoprecipitation essentially as described previously (Florkiewicz et al., Growth Factors 4:265–275, 1991; Florkiewicz et al., Ann. N.Y. Acad. Sci. 638:109–126) except that 400 μl of lysis buffer (1% NP-40, 0.5% deoxycholate, 20 mM Tris pH 7.5, 5 mM EDTA, 2 mM EGTA, 0.01 mM phenylmethylsufonyl fluoride, 10 ng/ml aprotinin, 10 ng/ml leupeptin, 10 ng/ml peptstatin) is added to the medium fraction after clarification by centrifugation in a microfuge for 15 minutes. Cell or medium fractions are incubated with monoclonal or polyclonal antibodies to MIF and GammaBind™ G Sepharose® (Pharmacia LKB Biotechnology, Uppsala, Sweden) was added for an additional 30 minutes incubation. Immune complexes are sedimented by microfuge centrifugation, washed three times with lysis buffer, and four times with ice cold immunoprecipitation wash buffer (0.15M NaCl, 0.01 M Na-phosphate pH 7.2, 1% deoxycholate, 1% NP-40, 0.1% sodium dodecyl sulfate). Immune complexes are dissociated directly in SDS gel sample buffer 125 mM Tris, pH 6.8, 4% SDS, 10% glycerol, 0.004% bromphenol blue, 2 mM EGTA, and separated by 12% SDS-PAGE. The gel is processed for fluorography, dried, and exposed to X-ray film at −70° C. […]

In the case of `Cn1c(=O)c([N+](=O)[O-])c(N2CCN(C(=O)c3ccco3)CC2)c2ccccc21` [compound 7e], the “detectable MIF in conditioned media using the monoclonal antibody” value is reported as “significant loss of detectable MIF”.
